# Measurements taken from patent US10881110B2, “Herbicidal compositions comprising isoxazolo[5,4-b]pyridines” (BASF SE, priority 2014, dated 2021).
# Experiments:
# Assay in all cases: greenhouse post-emergence herbicidal test
# GERDI = format: in vivo, Geranium dissectum; set-up: key to herbicidal activity against GERDI found: rating on a scale from 0 to 100; conditions: post emergence
# Method in brief: (§1)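 A 0 to 100 injury score, read 20 days after post-emergence application, reflects above-ground destruction or absent emergence at 100. Actives, formulated as a 10% by weight emulsion concentrate, were applied in water to plants 1–15 cm tall held at 10-25° C or 20-35° C.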
# CONAR = format: in vivo, Convolvulus arvensis; set-up: key: rating on a scale from 0 to 100
# Description: (§2) The culture containers used were plastic pots containing medium loamy sand with approximately 4.6% of humus and 69.9% sand as substrate. The seeds of the test plants were sown separately for each species.
# (§3) For the post-emergence treatment, the test plants were grown to a plant height of from 1 to 15 cm, depending on the plant habit, and only then treated with the active compounds which had been suspended or emulsified in water. To this end, the test plants were either sown directly, and grown in the same containers, or they were first grown separately as seedlings and transplanted into the test containers a few days prior to treatment.
# (§4) Depending on the species, the plants were kept at 10-25° C. and 20-35° C., respectively.
# (§5) The test period extended over 1 to 3 weeks. During this time, the plants were tended and their response to the individual treatments was evaluated 20 days after treatment except mentioned otherwise.
# (§6) Evaluation was carried out using a scale from 0 to 100. 100 means no emergence of the plants, or complete destruction of at least the above-ground parts, and 0 means no damage or normal course of growth.
# (§7) The respective stated components A and B, and, if appropriate, C, were formulated as a 10% by weight strength emulsion concentrate and, with addition of the amount of solvent system, introduced into the spray liquor used for applying the active compound. In the examples, the solvent used was water.
# (§8) In the examples below, using the method of S. R. Colby (1967) “Calculating synergistic and antagonistic responses of herbicide combinations”, Weeds 15, p. 22 ff., the value E, which is expected if the activity of the individual active compounds is only additive, was calculated. E=X+Y−(X·Y/100)
# APESV = format: in vivo, Apera spica-venti; set-up: key to herbicidal activity against APESV found: rating on a scale from 0 to 100; conditions: post emergence, 20 days after treatment
# Method in brief: as §1
# CHEAL = format: in vivo, Chenopodium album
# Description: as §2, §3, §4, §5, §6, §7, §8
# ECHCG = format: in vivo, Echinochloa crus-galli; set-up: key to herbicidal activity against ECHCG found / herbicidal activity against ECHCH found: scale 0 to 100; conditions: post emergence, 20 days after treatment
# Method in brief: as §1
# MATCH = format: in vivo, Matricaria recutita; set-up: key to herbicidal activity against MATCH found: rating on a scale from 0 to 100; conditions: post emergence
# Method in brief: as §1
# POLCO = format: in vivo, Polygonum convolvulus; set-up: key to herbicidal activity against POLCO found: rating on a scale from 0 to 100; conditions: post emergence
# Method in brief: (§9)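 Herbicidal activity scored on a 0 (no damage) to 100 (plants destroyed) scale, usually 20 days after water-based spraying of 1–15 cm plants grown in loamy sand at 10-25 °C or 20-35 °C depending on species. Components were applied from 10% emulsion concentrates; Colby's E=X+Y−(X·Y/100) gives the additive expectation.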
# STEME = format: in vivo, Stellaria media; set-up: key: scale 0 to 100
# Description: as §2, §3, §4, §5, §6, §7, §8
# PHACA = format: in vivo
# Description: as §2, §3, §4, §5, §6, §7, §8
# LOLMU = format: in vivo, Lolium multiflorum
# Description: as §2, §3, §4, §5, §6, §7, §8
# GALAP = format: in vivo, Galium aparine; set-up: key to herbicidal activity against GALAP found: rating on a scale from 0 to 100; conditions: post emergence
# Method in brief: as §9
# ALOMY = format: in vivo, Alopecurus myosuroides; set-up: key to herbicidal activity against ALOMY found: rating on a scale from 0 to 100; conditions: post emergence, 20 days after treatment
# Method in brief: as §1
# ABUTH = format: in vivo, Abutilon theophrast; set-up: key to herbicidal activity against ABUTH found: rating on a scale from 0 to 100; conditions: post emergence
# Method in brief: as §1
# POLAV = format: in vivo, Polygonum aviculare; set-up: key: rating on a scale from 0 to 100
# Description: as §2, §3, §4, §5, §6, §7, §8
# PAPRH = format: in vivo, Papaver rhoeas; set-up: key: rating on a scale from 0 to 100
# Method in brief: as §1
# LAMAM = format: in vivo, Lamium amplexicaule; set-up: key: scale 0 to 100
# Description: as §2, §3, §4, §5, §6, §7, §8
# VIOAR = format: in vivo, Viola arvensis; set-up: key to herbicidal activity against VIOAR found / herbicidal activity against VIOLA found: rating on a scale from 0 to 100; conditions: post emergence
# Method in brief: as §9
# POLPE = format: in vivo, Persicaria maculosa; set-up: key: scale 0 to 100
# Description: as §2, §3, §4, §5, §6, §7, §8
# PANMI = format: in vivo, Panicum miliaceum; conditions: application rate a.i.: I.1 125 g/ha, alone or as mixture (composition 1.113)
# Description: as §2, §3, §4, §5, §6, §7, §8
# AMBEL = format: in vivo, Ambrosia artemisiifolia; set-up: key: rating on a scale from 0 to 100; conditions: 20 g/ha a.i.
# Description: as §2, §3, §4, §5, §6, §7, §8
# AMARE = format: in vivo, Amaranthus retroflexus; conditions: a.i. g/ha: I.1 31.25, B.76 225, 20 days after treatment
# Description: as §2, §3, §4, §5, §6, §7, §8
# DIGSA = format: in vivo, Digitaria sanguinalis
# Description: as §2, §3, §4, §5, §6, §7, §8
# [1] = a.i. g/ha: I.1 7.8, B.67 125, 20 days after treatment
# [2] = a.i. g/ha: I.1 15.6, B.67 125, 20 days after treatment
# [3] = a.i. g/ha: I.1 31.25, B.67 125, 20 days after treatment
# [4] = a.i. g/ha: I.1 31.25, B.67 125, 20 days after treatment, sub-table r36-r43
# [5] = a.i. g/ha: I.1 62.5, B.67 125, 20 days after treatment
# [6] = a.i. g/ha: I.1 20.8, B.67 62.5, 20 days after treatment
# [7] = a.i. g/ha: I.1 62.5, B.67 62.5, 20 days after treatment
# [8] = a.i. g/ha: I.1 6.9, B.67 62.5, 20 days after treatment
# [9] = application rate a.i.: I.1 125 g/ha, B.113 (glyphosate) 135 g/ha, alone or as mixture (composition 1.113)
# [10] = application rate a.i.: I.1 125 g/ha, B.113 (glyphosate) 33.75 g/ha, alone or as mixture (composition 1.113)
# [11] = a.i. g/ha: I.1 62.5, B.76 225, 20 days after treatment
# [12] = a.i. g/ha: I.1 31.25, B.76 225, 20 days after treatment
structure (smiles),measurement,setting,value
"CCNc1nc(Cl)nc(NC(C)C)n1 [B.67, atrazine]",herbicidal activity against GERDI found,GERDI; [1],70%
same,herbicidal activity against GERDI found,GERDI; [2],70%
same,herbicidal activity against GERDI found,GERDI; [3],85%
same,herbicidal activity against GERDI found,GERDI; [4],85%
same,herbicidal activity against GERDI found,GERDI; [5],70%
same,herbicidal activity against CONAR found,CONAR; [1],65%
same,herbicidal activity against CONAR found,CONAR; [2],65%
same,herbicidal activity against CONAR found,CONAR; [6],60%
same,herbicidal activity against CONAR found,CONAR; [3],65%
same,herbicidal activity against CONAR found,CONAR; [7],60%
same,herbicidal activity against CONAR found,CONAR; [5],65%
same,herbicidal activity against APESV found,"APESV; a.i. g/ha: I.1 2.3, B.67 62.5",60%
same,herbicidal activity against APESV found,"APESV; a.i. g/ha: I.1 6.9, B.67 62.5",60%
same,herbicidal activity against CHEAL found,CHEAL; [8],75%
same,herbicidal activity against CHEAL found,CHEAL; [2],80%
same,herbicidal activity against CHEAL found,CHEAL; [6],75%
same,herbicidal activity against CHEAL found,CHEAL; [3],80%
same,herbicidal activity against ECHCG found,"ECHCG; a.i. g/ha: I.1 20.8, B.67 62.5",35%
same,herbicidal activity against ECHCG found,"ECHCG; a.i. g/ha: I.1 62.5, B.67 62.5",35%
same,herbicidal activity against MATCH found,MATCH; [3],70%
same,herbicidal activity against MATCH found,MATCH; [4],70%
same,herbicidal activity against MATCH found,MATCH; [5],50%
same,herbicidal activity against POLCO found,POLCO; [2],60%
same,herbicidal activity against POLCO found,POLCO; [6],80%
same,herbicidal activity against POLCO found,POLCO; [3],60%
same,herbicidal activity against POLCO found,POLCO; [7],80%
same,herbicidal activity against STEME found,"STEME; a.i. g/ha: I.1 2.3, B.67 62.5, 20 days after treatment",80%
same,herbicidal activity against STEME found,STEME; [8],80%
same,herbicidal activity against STEME found,STEME; [2],75%
same,herbicidal activity against STEME found,STEME; [6],80%
same,herbicidal activity against STEME found,STEME; [3],75%
same,herbicidal activity against STEME found,STEME; [4],75%
same,herbicidal activity against PHACA found,PHACA; [3],30%
same,herbicidal activity against PHACA found,PHACA; [5],30%
same,herbicidal activity against LOLMU found,LOLMU; [1],35%
same,herbicidal activity against LOLMU found,LOLMU; [2],35%
same,herbicidal activity against LOLMU found,LOLMU; [3],35%
same,herbicidal activity against LOLMU found,LOLMU; [7],20%
same,herbicidal activity against LOLMU found,LOLMU; [5],35%
same,herbicidal activity against GALAP found,GALAP; [2],70%
same,herbicidal activity against GALAP found,GALAP; [6],65%
same,herbicidal activity against GALAP found,GALAP; [3],70%
same,herbicidal activity against GALAP found,GALAP; [7],65%
same,herbicidal activity against ALOMY found,"ALOMY; a.i. g/ha: I.1 6.9, B.67 62.5",35%
same,herbicidal activity against ALOMY found,"ALOMY; a.i. g/ha: I.1 20.8, B.67 62.5",35%
same,herbicidal activity against ALOMY found,"ALOMY; a.i. g/ha: I.1 62.5, B.67 62.5",35%
same,herbicidal activity against ABUTH found,ABUTH; [1],60%
same,herbicidal activity against ABUTH found,ABUTH; [2],60%
same,herbicidal activity against ABUTH found,ABUTH; [3],60%
same,herbicidal activity against ABUTH found,ABUTH; [4],60%
same,herbicidal activity against ABUTH found,ABUTH; [5],60%
"Cc1cc(Cl)ccc1OCC(=O)O [B.164, MCPA]",herbicidal activity against POLAV found,POLAV; 100 g/ha a.i.,70
same,herbicidal activity against POLAV found,POLAV; 200 g/ha a.i.,85
same,herbicidal activity against POLAV found,POLAV; 400 g/ha a.i.,85
same,herbicidal activity against PAPRH found,PAPRH; 100 g/ha a.i.,60
same,herbicidal activity against PAPRH found,PAPRH; 200 g/ha a.i.,65
same,herbicidal activity against GERDI found,GERDI; 100 g/ha a.i.,65
same,"herbicidal activity against LAMAM, found",LAMAM; 200 g/ha a.i.,65
same,"herbicidal activity against LAMAM, found",LAMAM; 400 g/ha a.i.,70
same,herbicidal activity against CONAR found,CONAR; 200 g/ha a.i.,90
same,herbicidal activity against CONAR found,CONAR; 400 g/ha a.i.,90
same,herbicidal activity against VIOAR found,VIOAR; 100 g/ha a.i.,60
same,herbicidal activity against VIOAR found,VIOAR; 200 g/ha a.i.,65
same,herbicidal activity against VIOAR found,VIOAR; 400 g/ha a.i.,70
same,herbicidal activity against MATCH found,MATCH; 400 g/ha a.i.,50
same,herbicidal activity against POLCO found,POLCO; 200 g/ha a.i.,50
same,herbicidal activity against POLCO found,POLCO; 400 g/ha a.i.,50
same,herbicidal activity against STEME found,STEME; 100 g/ha a.i.,50
same,herbicidal activity against STEME found,STEME; 200 g/ha a.i.,60
same,herbicidal activity against STEME found,STEME; 400 g/ha a.i.,80
same,herbicidal activity against POLPE found,POLPE; 200 g/ha a.i.,65
same,herbicidal activity against POLPE found,POLPE; 400 g/ha a.i.,80
same,herbicidal activity against GALAP found,GALAP; 400 g/ha a.i.,30
same,herbicidal activity against ABUTH found,ABUTH; 200 g/ha a.i.,80
"O=C(O)CNCP(=O)(O)O [B.113, glyphosate]",herbicidal activity against GERDI found,GERDI; [9],80
same,herbicidal activity against CONAR found,CONAR; [10],45
same,"herbicidal activity against PANMI, found",PANMI; B.113 (glyphosate) 33.75 g/ha,80
same,"herbicidal activity against PANMI, found",PANMI; B.113 (glyphosate) 135 g/ha,90
same,herbicidal activity against GALAP found,GALAP; [10],50
same,herbicidal activity against GALAP found,GALAP; [9],80
"COc1cc(OC)nc(NC(=O)NS(=O)(=O)c2ncccc2C(=O)N(C)C)n1 [B.51, nicosulfuron]",herbicidal activity against AMBEL found,AMBEL,80
same,pest or weed control at 20 g/ha,"MATCH; Matricaria chamomilla, post-emergence, 480 h, 20 g/ha a.i., read-out: herbicidal activity against MATCH found",90%
same,herbicidal activity against POLPE found,POLPE; 20 g/ha a.i.,95
"CC(C)c1ccc(NC(=O)N(C)C)cc1 [B.76, isoproturon]",herbicidal activity against AMARE found,AMARE,50%
same,herbicidal activity against CONAR found,CONAR; [11],65%
same,herbicidal activity against CHEAL found,CHEAL; [12],65%
same,herbicidal activity against CHEAL found,CHEAL; [11],65%
same,herbicidal activity against DIGSA found,DIGSA; [12],30%
same,herbicidal activity against DIGSA found,DIGSA; [11],30%
